The target of one experiment is T1, MATE1 (Homo sapiens, UniProt Q96FL8).
T1 sequence (Q96FL8 1-570): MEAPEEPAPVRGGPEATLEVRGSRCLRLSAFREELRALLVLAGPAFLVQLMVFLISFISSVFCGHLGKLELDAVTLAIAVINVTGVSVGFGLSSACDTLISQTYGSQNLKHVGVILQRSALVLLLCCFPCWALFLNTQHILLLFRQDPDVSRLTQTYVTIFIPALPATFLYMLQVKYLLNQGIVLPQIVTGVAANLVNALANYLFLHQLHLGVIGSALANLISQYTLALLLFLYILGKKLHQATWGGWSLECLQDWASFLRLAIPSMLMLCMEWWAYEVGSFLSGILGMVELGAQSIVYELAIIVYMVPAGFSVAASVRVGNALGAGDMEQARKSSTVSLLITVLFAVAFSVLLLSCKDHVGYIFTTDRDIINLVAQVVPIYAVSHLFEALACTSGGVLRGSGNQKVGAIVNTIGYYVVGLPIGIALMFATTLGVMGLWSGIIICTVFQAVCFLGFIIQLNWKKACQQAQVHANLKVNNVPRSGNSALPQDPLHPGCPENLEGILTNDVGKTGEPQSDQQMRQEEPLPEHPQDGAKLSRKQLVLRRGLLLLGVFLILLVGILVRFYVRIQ

The target in a further experiment is T2, OCT2 (Homo sapiens, UniProt O15244).
T2 sequence (O15244 1-555): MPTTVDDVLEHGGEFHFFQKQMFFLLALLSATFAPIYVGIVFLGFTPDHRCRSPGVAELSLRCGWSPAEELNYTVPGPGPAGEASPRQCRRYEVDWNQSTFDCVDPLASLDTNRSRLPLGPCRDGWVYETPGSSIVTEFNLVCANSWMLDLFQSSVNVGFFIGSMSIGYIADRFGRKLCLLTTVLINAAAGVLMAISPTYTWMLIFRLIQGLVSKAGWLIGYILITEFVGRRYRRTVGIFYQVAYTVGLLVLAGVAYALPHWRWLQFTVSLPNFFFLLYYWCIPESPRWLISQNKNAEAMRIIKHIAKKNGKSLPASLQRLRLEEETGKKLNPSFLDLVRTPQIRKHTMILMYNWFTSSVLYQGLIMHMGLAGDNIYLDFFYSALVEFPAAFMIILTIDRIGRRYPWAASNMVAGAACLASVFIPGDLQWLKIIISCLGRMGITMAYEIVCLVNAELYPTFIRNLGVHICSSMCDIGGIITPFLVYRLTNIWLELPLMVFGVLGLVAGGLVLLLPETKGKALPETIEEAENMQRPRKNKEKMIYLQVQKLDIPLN

For experiment [1] the following is noted: Cushing's syndrome patients, reportedly; cited from earlier work.

As usually defined, the IC50 is the concentration needed to halve the response being measured. A higher IC50 goes with a need for much substance. As to `CC(=O)N1CCN(c2ccc(OCC3COC(Cn4ccnc4)(c4ccc(Cl)cc4Cl)O3)cc2)CC1` (racemic) [Ketoconazole, ketoconazole], the figures for the concentration for half-maximal inhibition (IC50) on MATE1 and against OCT2 were 279 nM and 1520 nM, respectively. In addition, the “patients in whom hypercortisolism is normalized” value in experiment [1] was 30-70%.

In the case of `CC(=O)N1CCN(c2ccc(OC[C@@H]3CO[C@@](Cn4ccnc4)(c4ccc(Cl)cc4Cl)O3)cc2)CC1` (relative stereo) [Levoketoconazole, 2S,4R cis-1-acetyl-4-[4-[[2-(2,4-dichlorophenyl)-2-(1H-imidazol-1-ylmethyl)-1,3-dioxolan-4-yl]methoxyl]phenyl]piperazine], the IC50 is 248 nM against MATE1 and 218 nM against OCT2.

Values taken from patent publication US11278547B2 (Strongbridge Dublin Limited, priority 2019, dated 2022).
